Ten molecules from patent US20250213546A1, “TREATING CANCER WITH SMALL MOLECULES THAT INHIBIT ACSS-2” (DREXEL UNIVERSITY, priority 2022, published 2025) can be followed below.

One data set deals with hACSS-2 (Homo sapiens (Human), UniProt Q9NR19). The data set can be described thus: Surface plasmon resonance (SPR) binding to immobilized hACSS-2. The following applies: for koff / kon: 1:1 binding model. How it is done:
SPR characterization. All binding assays were performed on a ProteOn XPR36 SPR Protein Interaction Array System (Bio-Rad Laboratories, Hercules, CA, USA). The instrument temperature was set at 25° C. for all kinetic analyses. ProteOn GLH sensor chips were preconditioned with two short pulses each (10 s) of 50 mM NaOH, 100 mM HCl, and 0.5% sodium dodecyl […]. Then the system was equilibrated with running buffer (1×PBS pH 7.4, 3% DMSO and 0.005% polysorbate 20). The surface of a GLH sensor chip was activated with a 1:100 dilution of a 1:1 mixture of 1-ethyl-3-(3-dimethylaminopropyl) carbodiimide hydrochloride (0.2 M) and sulfo-N-hydroxysuccinimide (0.05 M). […] Then, after unreacted protein had been washed out, excess active ester groups on the sensor surface were capped by a 5 min injection of 1M ethanolamine HCl (pH 8.0) at a flow rate of 5 μL/min. A reference surface was similarly created by immobilizing a nonspecific protein (IgG b12 anti-HIV-1 gp120; was obtained through the NIH AIDS Reagent Program, Division of AIDS, NIAID, NIH: Anti-HIV-1 gp120 Monoclonal (IgG1 b12) from Dr. Dennis Burton and Carlos Barbas) and was used as a background to correct nonspecific binding. Serial dilutions of hACSS-2 inhibitors were then prepared in the running buffer and injected at a flow rate of 100 μL/min, for a 50 s association phase, followed by up to a 5 min dissociation phase using the “one-shot kinetics” capability of the ProteOn instrument. Data were analyzed using the ProteOn Manager Software version 3.0 (Bio-Rad). The responses from the reference flow cell were subtracted to account for the nonspecific binding and injection artifacts. Experimental data were fitted to a simple 1:1 binding model. Experiments were performed in triplicate to detect kinetic and equilibrium dissociation constants (KD).
Overproduction of hACSS-2 was achieved using a prokaryotic expression system. […] The bacterial expressions were then spun down, the supernatant discarded, and the pellets resuspended. After the cells were lysed via sonication, the sample was subjected to ultracentrifugation, and the clarified lysate was applied to a Talon cobalt resin affinity column (Clonetech Laboratories, Mountain View, CA). The bound protein was eluted from the column using 1×PBS pH 7.4 with 0.3 M imidazole, then dialyzed overnight into 20 mM Tris-HCl pH 8.0, concentrated to 10 mg/mL, aliquoted, and stored at −80° C.
In general terms: Surface plasmon resonance follows binding to a sensor surface in real time, without labels.

Data set [1] is described as follows: Human liver microsome stability. The data set is classed as in vitro ADME. The following applies: for Human Liver Microsome Stability Remaining(T = 60 min) / Human Liver Microsome Stability Remaining(NCF = 60 min): given as fraction. As to the method:
(§1) Metabolic Stability and Plasma Stability. Test compound Working solution: 5 μL of compound stock solution (10 mM in dimethyl sulfoxide (DMSO)) were diluted with 495 μL of DMSO (Working solution concentration: 100 μM, 100% DMSO). Propantheline bromide Working solution: 5 μL of Propantheline bromide stock solution (10 mM in H2O) were diluted with 495 μL of H2O (Working solution concentration: 100 μM, 100% H2O)
(In general: Microsomes from liver hold many membrane-bound enzymes, among them those of drug oxidation.)

Another data set deals with MDR1. The data set can be described thus: in vitro. The following applies: dog, MDCK-MDR1, pH 7.4, Mean % Solution Recovery A to B. As to the method:
MDCKI MDR1 cell permeability assessment was performed to mimic the blood brain barrier. MDR1-MDCK I cells were seeded onto […] (PET) in 96-well Corning insert systems at 2.5×10^5 cells/mL until to 4-7 days for confluent cell monolayer formation. The transport buffer in the study was HBSS with 10.0 mM HEPES at pH 7.40+0.05. Test compounds were tested at 2.00 μM bi-directionally in duplicate. […] Final DMSO concentration was adjusted to less than 1%. The plate was incubated for 1.5 hours in CO2 incubator at 37±1° C., with 5% CO2 at saturated humidity without shaking. All samples after mixed with acetonitrile containing internal standard were centrifuged at 3220×g for 10 min. For all samples, 150 μL supernatant solution was diluted with 150 μL ultra-pure water for LC-MS/MS analysis. In addition, the efflux ratio of each compound was also determined. Test and reference compounds were quantified by LC-MS/MS analysis based on the peak area ratio of analyte/IS. After transport assay, Lucifer yellow rejection assay are applied to determine the cell monolayer integrity. Buffers are removed from both apical and basolateral chambers, followed by the addition of 75 μL of 100 μM lucifer yellow in transport buffer and 250 μL transport buffer in apical and basolateral chambers, respectively. […] After 30 minutes incubation, 20 μL of lucifer yellow samples are taken from the apical sides, followed by the addition of 60 μL of Transport Buffer. And then 80 μL of lucifer yellow samples are taken from the basolateral sides.
The apparent permeability coefficient Papp (cm/s) was calculated using the equation: Papp=(dCr/dt)×Vr/(A×C0) where dCr/dt is the cumulative concentration of compound in the receiver chamber as a function of time (μM/s); Vr is the solution volume in the receiver chamber (0.075 mL on the apical side, 0.25 mL on the basolateral side); A is the surface area for the transport, i.e. 0.0804 cm^2 for the area of the monolayer; CO is the initial concentration in the donor chamber (μM). […] Percent of lucifer yellow in basolateral well is calculated using the equation: Where RFUApical and RFUBasolateral are the relative fluorescence unit values of lucifer yellow in the apical and basolateral wells, respectively; VApical and VBasolateral are the volume of apical and basolateral wells (0.075 mL and 0.25 mL), respectively. The % Lucifer Yellow should be less than 1.0.

The next data set in a line: Human plasma stability. The data set is classed as in vitro ADME. Conditions: both sexes, 37° C., up to 120 min, read-out: Human Plasma Stability T1/2. As to the method:
as §1
Human plasma from 3 males and 3 females was obtained. Heparin was used as the anticoagulant. The pooled frozen plasma was thawed in a water bath at 37° C. prior to experiment. Plasma was centrifuged at 4000 rpm for 5 min and the clots were removed if any. Using an Apricot automation workstation, 98 μL/well of blank plasma were added to all 96-well reaction plates. (Blank, T0, T10, T30, T60 and T120). The appointed incubation time points are T0 (0 min), Tn (n=0, 10, 30, 60, 120 min). An Apricot automation workstation was used to add 2 μL/well of working solution (100 μM) to all reaction plates except Blank. (T0, T10, T30, T60 and T120). All reaction plates containing mixtures of compound and plasma were incubated at 37° C. in water bath. The reaction plates were incubated at 37° C., and timer was started. At the end of incubation, 500 μL of stop solution was added and mixed (200 ng/mL tolbutamide and 200 ng/ml labetalol in ACN) to precipitate protein. Each plate was sealed and shaken for 20 minutes. After shaking, each plate was centrifuged at 4000 rpm and 4° C. for 20 minutes. After centrifugation, an Apricot automation workstation was used to transfer 150 μL of supernatant from each reaction plate to its corresponding bioanaylsis plate. Each bioanalysis plate was sealed and shaken for 10 minutes prior to LC-MS/MS analysis. The % remaining of test compound after incubation in plasma was calculated using following equation: Remaining=100×(PAR at appointed incubation time/PAR at T0 time) where PAR is the peak area ratio of analyte versus internal standard (IS).

The mark [2] stands for this setting: read-out: Affinity (KD in μM) for hACSS-2 mean ± SD (n = 3), SPR, one site binding model isotherm, triplicate.
Setting [3] is: Langmuir isotherm equilibrium fit, mean, n = 3, read-out: KD [μM] equilibrium.
Where [4] appears, read: global fit, mean, n = 3, read-out: KD [μM] kinetic/global.

Broadly, the koff is the rate constant with which the complex falls apart. A low value points to a long-lived complex. The kon is the rate constant with which the complex forms. The low end stands for slow association, the high end for fast association.

Like-named read-outs stand apart in the source and are kept apart here.

Chain of hACSS-2 (Q9NR19 whole entry): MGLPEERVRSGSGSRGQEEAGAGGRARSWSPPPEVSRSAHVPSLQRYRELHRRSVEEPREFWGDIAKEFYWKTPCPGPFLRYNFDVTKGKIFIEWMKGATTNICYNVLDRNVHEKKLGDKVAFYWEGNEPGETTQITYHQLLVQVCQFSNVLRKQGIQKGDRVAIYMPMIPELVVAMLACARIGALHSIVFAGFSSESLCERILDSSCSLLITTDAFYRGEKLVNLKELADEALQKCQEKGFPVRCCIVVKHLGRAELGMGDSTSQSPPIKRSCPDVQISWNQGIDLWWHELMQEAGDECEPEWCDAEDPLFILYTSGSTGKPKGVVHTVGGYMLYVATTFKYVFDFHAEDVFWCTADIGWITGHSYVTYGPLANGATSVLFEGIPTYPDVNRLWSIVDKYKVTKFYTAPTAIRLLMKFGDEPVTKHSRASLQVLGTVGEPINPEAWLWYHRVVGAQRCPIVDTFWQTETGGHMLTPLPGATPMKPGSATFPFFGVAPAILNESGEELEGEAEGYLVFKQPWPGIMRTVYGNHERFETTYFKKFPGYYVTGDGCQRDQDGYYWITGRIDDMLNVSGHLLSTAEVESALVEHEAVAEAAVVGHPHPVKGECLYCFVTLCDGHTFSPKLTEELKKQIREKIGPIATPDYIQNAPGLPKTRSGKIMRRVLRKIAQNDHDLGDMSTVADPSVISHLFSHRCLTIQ

Consider `O=S(=O)(NCCC(c1ccccc1)c1ccco1)N1CCOCC1` (stereo not shown) [AD-4859], for which, on hACSS-2 (setting [2]), the Kd stood at 52 ± 2 µM.

Turning to `O=C(CC1CCNC1)NCCC(c1ccccc1)c1ccccc1` (stereo not shown) [AD-8972], on hACSS-2 (mean, n = 3), the koff came out at 0.401 s⁻¹. The association rate constant (kon) on hACSS-2 (mean, n = 3) worked out at 2830 M⁻¹ s⁻¹. The results for the Kd on hACSS-2 (setting [3]), at hACSS-2 (setting [4]) and at hACSS-2 (setting [2]) were 124 µM, 149 µM and 116 ± 82 µM, respectively.

With `O=C(O)Cc1ccccc1Nc1c(Cl)cccc1Cl` [Diclofenac, reference compound], in data set [1], the “Human Liver Microsome Stability Remaining(T = 60 min)” value turned out to be 0.00044 and the “Human Liver Microsome Stability Remaining(NCF = 60 min)” value turned out to be 0.8763.

As to `NC1(C(=O)N2CCCC(c3ccccc3)(c3ccccc3)C2)CC1` [AD-6772], the Kd at hACSS-2 (setting [2]) worked out at 80 ± 20 µM.

For the molecule `C[C@]12CC[C@H]3[C@@H](CCC4=CC(=O)CC[C@@]43C)[C@@H]1CC[C@@H]2O` [Testosterone, reference compound], in data set [1], the “Human Liver Microsome Stability Remaining(T = 60 min)” value was determined as 0.06959 and the “Human Liver Microsome Stability Remaining(NCF = 60 min)” value was found to be 0.8976.

In turn, `COCCc1ccc(OCC(O)CNC(C)C)cc1` (stereo not shown) [Metoprolol, reference compound] yielded a recovery at 1.5 h, 2 μM in the data set with MDR1 of 94.2%.

`CN1CCN(CCC(=O)N2CCCC(c3ccccc3)(c3ccccc3)C2)CC1` [AD-0029]: the Kd at hACSS-2 (setting [2]) worked out at 356 ± 108 µM.

The molecule `CN1CCC(O)(C(=O)NCCc2ccccc2Oc2ccccc2)CC1` [AD-7346] registered a koff on hACSS-2 (mean, n = 3) of 0.399 s⁻¹. This molecule also registered a kon on hACSS-2 (mean, n = 3) of 10100 M⁻¹ s⁻¹. Also, the Kd on hACSS-2 (setting [3]) was found to be 39.8 µM; on hACSS-2 (setting [4]), 49.4 µM; at hACSS-2 (setting [2]), 53 ± 21 µM.

With `CC(C)[N+](C)(CCOC(=O)C1c2ccccc2Oc2ccccc21)C(C)C` [Propantheline Bromide, Propantheline bromide, reference compound], in the data set “Human plasma stability”, the half-life at 2 µM came to 18.6 min.

`Cc1cccn2c(CC(=O)NCCC(c3ccccc3)c3ccco3)cnc12` (stereo not shown) [AD-3766]: in data set [1], the “Human Liver Microsome Stability Remaining(T = 60 min)” value is 0.0005 and the “Human Liver Microsome Stability Remaining(NCF = 60 min)” value amounted to 0.9639. For the same molecule, the “Human Liver Microsome Stability CLint(liver)” value in data set [1] (human liver microsomes, scaled to liver) is listed as 1364.4891 mL/min/kg. At hACSS-2 (mean, n = 3), this molecule came in with a dissociation rate constant (koff) of 0.359 s⁻¹ and an association rate constant (kon) of 5010 M⁻¹ s⁻¹. For the same molecule, the Kd at hACSS-2 (setting [3]) amounted to 70.6 µM. The Kd on hACSS-2 (setting [4]) was 77.6 µM. Moreover, the Kd on hACSS-2 (setting [2]) was 67 ± 13 µM. In addition, the half-life at 2 µM in the data set “Human plasma stability” is more than 289 min.
